Test results reported in US20100298141A1, “SUBSTITUTED PYRIDINE N-OXIDE HERBICIDES” (E. I. DU PONT DE NEMOURS AND COMPANY, priority 2007, published 2010).

Key:
barnyardgrass = test: Test C flooded paddy test; assay type: in vivo, Echinochloa crus-galli; details: Flood
Summary of the method: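 In-water treatment: compound dosed into 3 cm flood over soil, water level unchanged throughout. Controls run alongside; visual assessment at day 13–15.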

southern sandbur = test: Test F preemergence test; assay type: in vivo, Cenchrus echinatus; details: scale 0 to 100
Summary of the method: (§1)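 Visual ratings relative to controls, taken after 14 to 21 days in a greenhouse. Test chemicals, formulated in a surfactant-containing non-phytotoxic solvent mixture, were applied preemergence to sown seeds or postemergence to sugarcane plants.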

wheat = test: Test C pre-/postemergence test; assay type: in vivo, Triticum aestivum
Summary of the method: (§2)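 Seeds were planted and treated preemergence with test chemical in a non-phytotoxic solvent mixture containing surfactant. Postemergence applications of the same formulation went onto plants 2 to 18 cm tall (1- to 4-leaf stage). A dash marks no test result.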

field bindweed = test: Test F preemergence test; assay type: in vivo, Convolvulus arvensis; details: scale 0 to 100
Summary of the method: as §1

purple nutsedge = test: Test F preemergence test; assay type: in vivo, Cyperus rotundus; details: scale 0 to 100
Summary of the method: as §1

giant foxtail = test: Test A pre-/postemergence greenhouse test; assay type: in vivo, Setaria faberi; details: for Foxtail, Giant plant response rating: 0 to 100 scale; for Plant response rating, Foxtail, Giant: 0 to 100 scale where 0 is no effect and 100 is complete control
Summary of the method: (§3)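 Two application timings were run side by side in the greenhouse. Before emergence, compound went onto the soil surface of loam–sand pots as a directed spray; after emergence, plants at 2–10 cm and the one- to two-leaf stage were treated. Visual injury versus controls was rated at approximately day ten.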

common mallow = test: Test F preemergence test; assay type: in vivo, Malva sylvestris; details: scale 0 to 100
Summary of the method: as §1

annual bluegrass = test: Test F preemergence test; assay type: in vivo, Poa annua; details: scale 0 to 100
Summary of the method: as §1

common ragweed = test: Test C pre-/postemergence test; assay type: in vivo, Ambrosia elation
Summary of the method: as §2

green foxtail = test: Test F preemergence test; assay type: in vivo, Setaria viridis; details: scale 0 to 100
Summary of the method: as §1

Russian thistle = test: Test C pre-/postemergence test; assay type: in vivo, Salsola kali; details: for Plant response rating, Russian Thistle: 31 g ai/ha, scale 0 to 100 (0 no effect, 100 complete control)
Summary of the method: as §2

velvetleaf = test: Test A pre-/postemergence greenhouse test; assay type: in vivo, Abutilon theophrasti; details: for Velvetleaf plant response rating: 0 to 100 scale; for Plant response rating, Velvetleaf: 0 to 100 scale where 0 is no effect and 100 is complete control
Summary of the method: as §3

[1] = 31 g ai/ha, scale 0 to 100 (0 no effect, 100 complete control)
[2] = 62 g ai/ha, scale 0 to 100, 0 no effect, 100 complete control, 13 to 15 days
[3] = 125 g ai/ha, scale 0 to 100, 0 no effect, 100 complete control, 13 to 15 days
[4] = 250 g ai/ha, scale 0 to 100 (0 no effect, 100 complete control)
[5] = 62 g ai/ha, Preemergence, scale 0 to 100
[6] = Preemergence, 31 g ai/ha, scale 0 to 100 (0 no effect, 100 complete control)
[7] = Postemergence, 125 g ai/ha, 0 is no effect, 100 is complete control
[8] = Postemergence, 500 g ai/ha, 0 is no effect, 100 is complete control
[9] = Preemergence, 125 g ai/ha, 0 no effect, 100 complete control
[10] = 125 g ai/ha, preemergence, scale 0 (no effect) to 100 (complete control)
[11] = Postemergence, 125 g ai/ha, scale 0 to 100, 0 no effect, 100 complete control
[12] = Postemergence, 250 g ai/ha, scale 0 to 100, 0 no effect, 100 complete control
[13] = preemergence, 250 g ai/ha, scale 0 (no effect) to 100 (complete control)

Cc1cc[n+]([O-])c(S(=O)(=O)C(Cl)c2c(C(F)(F)F)nn(C)c2Cl)c1 (racemic) [Compound 22]
Plant response rating, Barnyardgrass (barnyardgrass; [1]): 10 | Plant response rating, Barnyardgrass (barnyardgrass; [2]): 20 | Plant response rating, Barnyardgrass (barnyardgrass; [3]): 80 | Plant response rating, Barnyardgrass (barnyardgrass; [4]): 85 | Sandbur plant response rating (southern sandbur; 62 g ai/ha, Preemergence): 75 | Sandbur plant response rating (southern sandbur; 125 g ai/ha, preemergence): 98 | Plant response rating, Sandbur (southern sandbur; Preemergence, 31 g ai/ha): 65 | Wheat plant response rating (wheat; [5]): 0 | Plant response rating, Wheat (wheat; [6]): 0 | Field Bindweed plant response rating (field bindweed; 62 g ai/ha, Preemergence): 0 | Field Bindweed plant response rating (field bindweed; 125 g ai/ha, preemergence): 35 | Plant response rating, Field Bindweed (field bindweed; Preemergence, 16 g ai/ha): 0 | Plant response rating, Field Bindweed (field bindweed; Preemergence, 31 g ai/ha): 0 | Purple Nutsedge plant response rating (purple nutsedge; 62 g ai/ha, Preemergence): 50 | Purple Nutsedge plant response rating (purple nutsedge; 125 g ai/ha, preemergence): 60 | Plant response rating, Purple Nutsedge (purple nutsedge; Preemergence, 16 g ai/ha): 0 | Plant response rating, Purple Nutsedge (purple nutsedge; Preemergence, 31 g ai/ha): 15 | Foxtail, Giant plant response rating (giant foxtail; [7]): 50 | Foxtail, Giant plant response rating (giant foxtail; [8]): 80 | Foxtail, Giant plant response rating (giant foxtail; [9]): 100 | Plant response rating, Foxtail, Giant (giant foxtail; Preemergence, 500 g ai/ha): 100 | Mallow plant response rating (common mallow; 62 g ai/ha, Preemergence): 65 | Mallow plant response rating (common mallow; 125 g ai/ha, preemergence): 65 | Plant response rating, Mallow (common mallow; Preemergence, 16 g ai/ha): 0 | Plant response rating, Mallow (common mallow; Preemergence, 31 g ai/ha): 0 | Bluegrass plant response rating (annual bluegrass; 62 g ai/ha, Preemergence): 30 | Bluegrass plant response rating (annual bluegrass; 125 g ai/ha, preemergence): 50 | Plant response rating, Bluegrass (annual bluegrass; Preemergence, 16 g ai/ha): 0 | Plant response rating, Bluegrass (annual bluegrass; Preemergence, 31 g ai/ha): 0 | Ragweed plant response rating (common ragweed; [5]): 80 | Plant response rating, Ragweed (common ragweed; [6]): 0 | Foxtail, Green plant response rating (green foxtail; 62 g ai/ha, Preemergence): 20 | Foxtail, Green plant response rating (green foxtail; 125 g ai/ha, preemergence): 95 | Plant response rating, Foxtail, Green (green foxtail; Preemergence, 16 g ai/ha): 0 | Plant response rating, Foxtail, Green (green foxtail; Preemergence, 31 g ai/ha): 15 | Russian Thistle plant response rating (Russian thistle; [5]): 100 | Plant response rating, Russian Thistle (Russian thistle; Preemergence): 100 | Velvetleaf plant response rating (velvetleaf; [7]): 0 | Velvetleaf plant response rating (velvetleaf; [8]): 40 | Velvetleaf plant response rating (velvetleaf; [9]): 10 | Plant response rating, Velvetleaf (velvetleaf; Preemergence, 500 g ai/ha): 60

Cn1nc(C(F)(F)F)c(C[S+]([O-])c2ccc(Cl)c[n+]2[O-])c1OCC(F)(F)F (racemic) [Compound 62]
Plant response rating, Barnyardgrass (barnyardgrass; 62 g ai/ha, scale 0 to 100 (0 no effect, 100 complete control)): 30 | Plant response rating, Barnyardgrass (barnyardgrass; 250 g ai/ha, scale 0 to 100, 0 no effect, 100 complete control, 13 to 15 days): 70 | Plant response rating, Sandbur (southern sandbur; 16 g ai/ha, preemergence): 25 | Sandbur plant response rating (southern sandbur; 125 g ai/ha, preemergence): 98 | Plant response rating, Sandbur (southern sandbur; Preemergence, 62 g ai/ha): 98 | Plant response rating, Sandbur (southern sandbur; Preemergence, 31 g ai/ha): 75 | Wheat plant response rating (wheat; [5]): 55 | Wheat plant response rating (wheat; [10]): 80 | Plant response rating (0 to 100), Wheat (wheat; Postemergence, 31 g ai/ha): 0 | Plant response rating (0 to 100), Wheat (wheat; Postemergence, 62 g ai/ha): 10 | Plant response rating, Wheat (wheat; [11]): 55 | Plant response rating, Wheat (wheat; [12]): 60 | Plant response rating, Wheat (wheat; [6]): 40 | Wheat plant response rating (wheat; [13]): 95 | Plant response rating, Field Bindweed (field bindweed; 16 g ai/ha, preemergence): 0 | Field Bindweed plant response rating (field bindweed; 62 g ai/ha, Preemergence): 75 | Field Bindweed plant response rating (field bindweed; 125 g ai/ha, preemergence): 75 | Plant response rating, Field Bindweed (field bindweed; Preemergence, 31 g ai/ha): 75 | Plant response rating, Purple Nutsedge (purple nutsedge; 16 g ai/ha, preemergence): 0 | Purple Nutsedge plant response rating (purple nutsedge; 62 g ai/ha, Preemergence): 65 | Purple Nutsedge plant response rating (purple nutsedge; 125 g ai/ha, preemergence): 75 | Plant response rating, Purple Nutsedge (purple nutsedge; Preemergence, 31 g ai/ha): 35 | Plant response rating, Foxtail, Giant (giant foxtail; Postemergence, 125 g ai/ha): 90 | Foxtail, Giant plant response rating (giant foxtail; [8]): 90 | Foxtail, Giant plant response rating (giant foxtail; [9]): 100 | Plant response rating, Foxtail, Giant (giant foxtail; Preemergence, 500 g ai/ha): 100 | Plant response rating, Mallow (common mallow; 16 g ai/ha, preemergence): 0 | Mallow plant response rating (common mallow; 62 g ai/ha, Preemergence): 98 | Mallow plant response rating (common mallow; 125 g ai/ha, preemergence): 100 | Plant response rating, Mallow (common mallow; Preemergence, 31 g ai/ha): 80 | Plant response rating, Bluegrass (annual bluegrass; 16 g ai/ha, preemergence): 20 | Bluegrass plant response rating (annual bluegrass; 62 g ai/ha, Preemergence): 80 | Bluegrass plant response rating (annual bluegrass; 125 g ai/ha, preemergence): 100 | Plant response rating, Bluegrass (annual bluegrass; Preemergence, 31 g ai/ha): 70 | Ragweed plant response rating (common ragweed; [5]): 100 | Ragweed plant response rating (common ragweed; [10]): 100 | Plant response rating (0 to 100), Ragweed (common ragweed; Postemergence, 31 g ai/ha): 0 | Plant response rating (0 to 100), Ragweed (common ragweed; Postemergence, 62 g ai/ha): 0 | Plant response rating, Ragweed (common ragweed; [11]): 0 | Plant response rating, Ragweed (common ragweed; [12]): 0 | Plant response rating, Ragweed (common ragweed; [6]): 100 | Ragweed plant response rating (common ragweed; [13]): 100 | Plant response rating, Foxtail, Green (green foxtail; 16 g ai/ha, preemergence): 20 | Foxtail, Green plant response rating (green foxtail; 62 g ai/ha, Preemergence): 80 | Foxtail, Green plant response rating (green foxtail; 125 g ai/ha, preemergence): 100 | Plant response rating, Foxtail, Green (green foxtail; Preemergence, 31 g ai/ha): 65 | Russian Thistle plant response rating (Russian thistle; [5]): 100 | Russian Thistle plant response rating (Russian thistle; [10]): 100 | Plant response rating, Russian Thistle (Russian thistle; Preemergence): 100 | Russian Thistle plant response rating (Russian thistle; [13]): 100 | Plant response rating, Velvetleaf (velvetleaf; Postemergence, 125 g ai/ha): 60 | Velvetleaf plant response rating (velvetleaf; [8]): 90 | Velvetleaf plant response rating (velvetleaf; [9]): 100 | Plant response rating, Velvetleaf (velvetleaf; Preemergence, 500 g ai/ha): 100

Cc1cc[n+]([O-])c(S(=O)(=O)Cc2c(C(F)(F)F)nn(C)c2Cl)c1 [Compound 19]
Plant response rating, Barnyardgrass (barnyardgrass; [1]): 0 | Plant response rating, Barnyardgrass (barnyardgrass; [2]): 0 | Plant response rating, Barnyardgrass (barnyardgrass; [3]): 30 | Plant response rating, Barnyardgrass (barnyardgrass; [4]): 75 | Sandbur plant response rating (southern sandbur; 62 g ai/ha, Preemergence): 90 | Sandbur plant response rating (southern sandbur; 125 g ai/ha, preemergence): 100 | Plant response rating, Sandbur (southern sandbur; Preemergence, 31 g ai/ha): 60 | Wheat plant response rating (wheat; [5]): 0 | Plant response rating, Wheat (wheat; [6]): 0 | Field Bindweed plant response rating (field bindweed; 62 g ai/ha, Preemergence): 0 | Field Bindweed plant response rating (field bindweed; 125 g ai/ha, preemergence): 15 | Plant response rating, Field Bindweed (field bindweed; Preemergence, 16 g ai/ha): 0 | Plant response rating, Field Bindweed (field bindweed; Preemergence, 31 g ai/ha): 0 | Purple Nutsedge plant response rating (purple nutsedge; 62 g ai/ha, Preemergence): 60 | Purple Nutsedge plant response rating (purple nutsedge; 125 g ai/ha, preemergence): 70 | Plant response rating, Purple Nutsedge (purple nutsedge; Preemergence, 16 g ai/ha): 0 | Plant response rating, Purple Nutsedge (purple nutsedge; Preemergence, 31 g ai/ha): 0 | Foxtail, Giant plant response rating (giant foxtail; [7]): 50 | Foxtail, Giant plant response rating (giant foxtail; [8]): 80 | Foxtail, Giant plant response rating (giant foxtail; [9]): 80 | Plant response rating, Foxtail, Giant (giant foxtail; Preemergence, 500 g ai/ha): 100 | Mallow plant response rating (common mallow; 62 g ai/ha, Preemergence): 0 | Mallow plant response rating (common mallow; 125 g ai/ha, preemergence): 40 | Plant response rating, Mallow (common mallow; Preemergence, 16 g ai/ha): 0 | Plant response rating, Mallow (common mallow; Preemergence, 31 g ai/ha): 0 | Bluegrass plant response rating (annual bluegrass; 62 g ai/ha, Preemergence): 0 | Bluegrass plant response rating (annual bluegrass; 125 g ai/ha, preemergence): 95 | Plant response rating, Bluegrass (annual bluegrass; Preemergence, 16 g ai/ha): 0 | Plant response rating, Bluegrass (annual bluegrass; Preemergence, 31 g ai/ha): 0 | Ragweed plant response rating (common ragweed; [5]): 0 | Plant response rating, Ragweed (common ragweed; [6]): 0 | Foxtail, Green plant response rating (green foxtail; 62 g ai/ha, Preemergence): 75 | Foxtail, Green plant response rating (green foxtail; 125 g ai/ha, preemergence): 90 | Plant response rating, Foxtail, Green (green foxtail; Preemergence, 16 g ai/ha): 0 | Plant response rating, Foxtail, Green (green foxtail; Preemergence, 31 g ai/ha): 50 | Russian Thistle plant response rating (Russian thistle; [5]): 100 | Plant response rating, Russian Thistle (Russian thistle; Preemergence): 100 | Velvetleaf plant response rating (velvetleaf; [7]): 20 | Velvetleaf plant response rating (velvetleaf; [8]): 40 | Velvetleaf plant response rating (velvetleaf; [9]): 0 | Plant response rating, Velvetleaf (velvetleaf; Preemergence, 500 g ai/ha): 50
